# Measurements: publication PMC10612060 (Viruses, 2023)
# Where “and” joins values, the source holds several entries; their conditions need not be identical. Identical values can stand only once. Like-named read-outs stand apart in the source and are kept apart here.
# Columns and labels:
# [1] = tested on: SARS-CoV-2 gamma strain (hCoV-19/Japan/TY7-501/2021); settings: cited from earlier work; for Viral titer in lungs: twice daily for 2 d, Day 2, individual mice 1-5, previously reported ref 12
# [2] = tested on: SARS-CoV-2 gamma strain hCoV-19/Japan/TY7-501/2021; type: in vivo, BALB/c mice
# in vivo = test: in vivo; set-up: species or system mice; settings: mouse plasma, simulated; for Cmax / AUC(0-t): BALB/c, mouse, in vivo, po; for AUC(0-t): read-out: AUC0–48h
# [3] = Adverse effects in rodents at exposure of the maximum dose; type: in vivo; settings: same exposure conditions as the maximum dose administered to mice
# [4] = tested on: SARS-CoV-2 gamma strain (hCoV-19/Japan/TY7-501/2021); set-up: method as in earlier work; settings: extrapolated to 100% mouse serum, cited from earlier work
# [5] = 8 mg/kg, thrice daily for 2 d, 8 mg/kg oral
# [6] = 8 mg/kg, twice daily for 2 d, 8 mg/kg oral
# [7] = 16 mg/kg, once daily for 2 d, 16 mg/kg oral
# [8] = 16 mg/kg, thrice daily for 2 d, 16 mg/kg oral
# [9] = 16 mg/kg, twice daily for 2 d, 16 mg/kg oral
# [10] = 32 mg/kg, once daily for 2 d, 32 mg/kg oral
# [11] = 32 mg/kg, one shot, 32 mg/kg oral
# [12] = 32 mg/kg, thrice daily for 2 d, 32 mg/kg oral
# [13] = 32 mg/kg, twice daily for 2 d, 32 mg/kg oral
# [14] = 64 mg/kg, once daily for 2 d, 64 mg/kg oral
# [15] = 64 mg/kg, one shot, 64 mg/kg oral
# [16] = 64 mg/kg, thrice daily for 2 d, 64 mg/kg oral
# [17] = 64 mg/kg, twice daily for 2 d, 64 mg/kg oral
smiles,measurement,setting,value
"CC(C)(C)[C@H](NC(=O)C(F)(F)F)C(=O)N1C[C@H]2[C@@H]([C@H]1C(=O)N[C@H](C#N)C[C@@H]1CCNC1=O)C2(C)C [nirmatrelvir, reference compound]",Antiviral activity in this model,[1]; delayed-treatment mouse model,demonstrates antiviral activity
"Cn1cnc(Cn2c(=O)[nH]/c(=N\c3cc4cn(C)nc4cc3Cl)n(Cc3cc(F)c(F)cc3F)c2=O)n1 [ensitrelvir, ensitrelvir fumaric acid]",Antiviral activity when administration delayed 72 h post-infection,[2]; given during the viral clearance phase,dose-dependent antiviral activity
same,Dose that significantly lowered lung viral titers compared to vehicle,"[2]; mouse, in vivo",≥ 8 mg/kg
same,Cmax,in vivo; [5],21500 ng/mL
same,AUC(0-t),in vivo; [5],657 µg·h/mL
same,Cmax,in vivo; [6],18100 ng/mL
same,AUC(0-t),in vivo; [6],446 µg·h/mL
same,Cmax,in vivo; [7],38800 ng/mL
same,AUC(0-t),in vivo; [7],475 µg·h/mL
same,Cmax,in vivo; [8],47600 ng/mL
same,AUC(0-t),in vivo; [8],1390 µg·h/mL
same,Cmax,in vivo; [9],41300 ng/mL
same,AUC(0-t),in vivo; [9],941 µg·h/mL
same,Cmax,in vivo; [10],72500 ng/mL
same,AUC(0-t),in vivo; [10],1020 µg·h/mL
same,Cmax,in vivo; [11],72400 ng/mL
same,AUC(0-t),in vivo; [11],510 µg·h/mL
same,Cmax,in vivo; [12],96000 ng/mL
same,AUC(0-t),in vivo; [12],2960 µg·h/mL
same,Cmax,in vivo; [13],79700 ng/mL
same,AUC(0-t),in vivo; [13],2010 µg·h/mL
same,Cmax,in vivo; [14],160000 ng/mL
same,AUC(0-t),in vivo; [14],2670 µg·h/mL
same,Cmax,in vivo; [15],159000 ng/mL
same,AUC(0-t),in vivo; [15],1340 µg·h/mL
same,Cmax,in vivo; [16],232000 ng/mL
same,AUC(0-t),in vivo; [16],7650 µg·h/mL
same,Cmax,in vivo; [17],188000 ng/mL
same,AUC(0-t),in vivo; [17],5230 µg·h/mL
same,C48h,"in vivo; once daily for 2 d, 16 mg/kg oral",75.8 ng/mL
same,C48h,"in vivo; once daily for 2 d, 32 mg/kg oral",210 ng/mL
same,C48h,"in vivo; once daily for 2 d, 64 mg/kg oral",1290 ng/mL
same,C48h,"in vivo; one shot, 32 mg/kg oral",0.0591 ng/mL
same,C48h,"in vivo; one shot, 64 mg/kg oral",1.11 ng/mL
same,C48h,"in vivo; thrice daily for 2 d, 8 mg/kg oral",5740 ng/mL
same,C48h,"in vivo; thrice daily for 2 d, 16 mg/kg oral","11,600 ng/mL"
same,C48h,"in vivo; thrice daily for 2 d, 32 mg/kg oral","30,000 ng/mL"
same,C48h,"in vivo; thrice daily for 2 d, 64 mg/kg oral","88,300 ng/mL"
same,C48h,"in vivo; twice daily for 2 d, 8 mg/kg oral",1840 ng/mL
same,C48h,"in vivo; twice daily for 2 d, 16 mg/kg oral",3760 ng/mL
same,C48h,"in vivo; twice daily for 2 d, 32 mg/kg oral","11,400 ng/mL"
same,C48h,"in vivo; twice daily for 2 d, 64 mg/kg oral","42,000 ng/mL"
same,Adverse effects,[3],No adverse effects were observed
same,Viral titer in lungs,"[1]; 8 mg/kg oral from 24 h post-infection, 8 mg/kg",5.80 log10 TCID50/mL (2×) and 5.97 log10 TCID50/mL (2×) and 5.63 log10 TCID50/mL
same,Viral titer in lungs,"[1]; 16 mg/kg oral from 24 h post-infection, 16 mg/kg",5.80 log10 TCID50/mL and 5.63 log10 TCID50/mL and 5.53 log10 TCID50/mL (2×) and 4.97 log10 TCID50/mL
same,Viral titer in lungs,"[1]; 32 mg/kg oral from 24 h post-infection, 32 mg/kg",4.30 log10 TCID50/mL and 3.80 log10 TCID50/mL and 4.63 log10 TCID50/mL (3×)
same,Viral titer in lungs,"[1]; 64 mg/kg oral from 24 h post-infection, 64 mg/kg",2.80 log10 TCID50/mL and 3.80 log10 TCID50/mL (2×) and 3.63 log10 TCID50/mL and 3.30 log10 TCID50/mL
same,Mouse PA-EC50,[4],2.09 µg/mL
same,EC50,[4]; read-out: Mouse PA-EC50,3.93 µM
